Our source for the Ki values is patent publication US8063053B2, “1-(arylsulfonyl)-4-(piperazin-1-yl)-1H-benzimidazoles as 5-hydroxytryptamine-6 ligands” (Wyeth LLC, priority 2008, dated 2011).

pKi: −log10 of the molar value.

The assay deals with T1, serotonin 5-HT6 receptor subtype (Homo sapiens, UniProt P50406).
T1 construct: host or cells: CHO-Dukx-A2 cells, clone 50-7
Put plainly: 5-HT6 binding affinity ([3H]-LSD SPA binding). The note with it: read-out: 5-HT6 binding Ki.

T1 sequence (P50406 whole entry): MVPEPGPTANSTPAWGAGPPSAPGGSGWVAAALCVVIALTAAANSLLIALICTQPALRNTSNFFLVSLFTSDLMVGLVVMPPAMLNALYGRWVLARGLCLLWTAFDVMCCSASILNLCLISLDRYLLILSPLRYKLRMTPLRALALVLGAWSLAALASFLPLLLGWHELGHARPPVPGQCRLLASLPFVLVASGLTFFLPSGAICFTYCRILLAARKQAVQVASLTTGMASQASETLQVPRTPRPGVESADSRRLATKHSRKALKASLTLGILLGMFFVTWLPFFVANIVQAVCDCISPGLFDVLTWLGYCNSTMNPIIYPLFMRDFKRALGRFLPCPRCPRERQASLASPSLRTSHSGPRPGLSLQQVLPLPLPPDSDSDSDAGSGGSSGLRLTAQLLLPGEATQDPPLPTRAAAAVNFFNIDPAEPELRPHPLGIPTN

For orientation: pKi means the negative decadic logarithm of the Ki, by convention in mol/L. For the compound `O=S(=O)(c1ccccc1C(F)(F)F)n1cnc2c(N3CCNCC3)cccc21` [Example 41, 4-piperazin-1-yl-1-{[2-(trifluoromethyl)phenyl]sulfonyl}-1H-benzimidazole], the pKi was 8.97.

`O=S(=O)(c1cccc(C(F)(F)F)c1)n1cnc2c(N3CCNCC3)cccc21` [Example 42, 4-piperazin-1-yl-1-{[3-(trifluoromethyl)phenyl]sulfonyl}-1H-benzimidazole]: the pKi was 8.95.

With `Cc1nc2c(N3CCNCC3)cccc2n1S(=O)(=O)c1ccc2ccccc2c1` [Example 43, 2-methyl-1-(2-naphthylsulfonyl)-4-piperazin-1-yl-1H-benzimidazole], the pKi is 8.98.

In the case of `COc1ccccc1S(=O)(=O)n1cnc2c(N3CCNCC3)cccc21` [Example 44, 1-[(2-methoxyphenyl)sulfonyl]-4-piperazin-1-yl-1H-benzimidazole], the pKi was 9.81.

For `COc1cccc(S(=O)(=O)n2c(C)nc3c(N4CCNCC4)cccc32)c1` [Example 45, 1-[(3-methoxyphenyl)sulfonyl]-2-methyl-4-piperazin-1-yl-1H-benzimidazole], the pKi is 8.68.

For the compound `Cc1nc2c(N3CCNCC3)cccc2n1S(=O)(=O)c1ccccc1OC(F)(F)F` [Example 46, 2-methyl-4-piperazin-1-yl-1-{[2-(trifluoromethoxy)phenyl]sulfonyl}-1H-benzimidazole], the pKi is 8.76.

Take `Cc1ccccc1S(=O)(=O)n1c(C)nc2c(N3CCNCC3)cccc21` [Example 47, 2-methyl-1-[(2-methylphenyl)sulfonyl]-4-piperazin-1-yl-1H-benzimidazole]: the pKi was 8.65.

As to `Cc1nc2c(N3CCNCC3)cccc2n1S(=O)(=O)c1ccccc1C(F)(F)F` [Example 48, 2-methyl-4-piperazin-1-yl-1-{[2-(trifluoromethyl)phenyl]sulfonyl}-1H-benzimidazole], the pKi was 8.53.

Turning to `Cc1nc2c(N3CCNCC3)cccc2n1S(=O)(=O)c1cccc(C(F)(F)F)c1` [Example 49, 2-methyl-4-piperazin-1-yl-1-{[3-(trifluoromethyl)phenyl]sulfonyl}-1H-benzimidazole], the pKi was 9.01.

As to `O=S(=O)(c1cccc2c(Cl)cccc12)n1cnc2c(N3CCNCC3)cccc21` [Example 50, 1-[(5-chloro-1-naphthyl)sulfonyl]-4-piperazin-1-yl-1H-benzimidazole], the pKi is 8.87.

`Cc1ccc(S(=O)(=O)n2c(C)nc3c(N4CCNCC4)cccc32)c2ccccc12` [Example 51, 2-methyl-1-[(4-methyl-1-naphthyl)sulfonyl]-4-piperazin-1-yl-1H-benzimidazole]: the pKi was 8.20.

Take `COc1ccccc1S(=O)(=O)n1c(C)nc2c(N3CCNCC3)cccc21` [Example 52, 1-[(2-methoxyphenyl)sulfonyl]-2-methyl-4-piperazin-1-yl-1H-benzimidazole]: the pKi was 8.72.

On to `CC1CN(c2cccc3c2ncn3S(=O)(=O)c2ccccc2Cl)CCN1` (stereo not drawn) [Example 53, 1-[(2-chlorophenyl)sulfonyl]-4-(3-methylpiperazin-1-yl)-1H-benzimidazole], for which the pKi was 8.87.

For the compound `CC1CN(c2cccc3c2ncn3S(=O)(=O)c2cccc(Cl)c2)CCN1` (stereo not drawn) [Example 54, 1-[(3-chlorophenyl)sulfonyl]-4-(3-methylpiperazin-1-yl)-1H-benzimidazole], the pKi was 8.72.

As for `Cc1cccc(S(=O)(=O)n2cnc3c(N4CCNC(C)C4)cccc32)c1` (stereo not drawn) [Example 55, 1-[(3-methylphenyl)sulfonyl]-4-(3-methylpiperazin-1-yl)-1H-benzimidazole], the pKi was 8.61.

As to `COc1ccccc1S(=O)(=O)n1cnc2c(N3CCNC(C)C3)cccc21` (stereo not drawn) [Example 56, 1-[(2-methoxyphenyl)sulfonyl]-4-(3-methylpiperazin-1-yl)-1H-benzimidazole], the pKi was 8.63.

Consider `CC1CN(c2cccc3c2ncn3S(=O)(=O)c2ccccc2OC(F)(F)F)CCN1` (stereo not drawn) [Example 57, 4-(3-methylpiperazin-1-yl)-1-{[2-(trifluoromethoxy)phenyl]sulfonyl}-1H-benzimidazole], for which the pKi is 8.68.

For `Cc1c(Cl)cccc1S(=O)(=O)n1cnc2c(N3CCNC(C)C3)cccc21` (stereo not drawn) [Example 58, 1-[(3-chloro-2-methylphenyl)sulfonyl]-4-(3-methylpiperazin-1-yl)-1H-benzimidazole], the pKi is 8.76.

As for `CC(C)c1nc2c(N3CCNCC3)cccc2n1S(=O)(=O)c1ccccc1Cl` [Example 59, 1-[(2-chlorophenyl)sulfonyl]-4-(1-methylethyl)-4-piperazin-1-yl-1H-benzimidazole], the pKi is 9.33.

With `CC(C)c1nc2c(N3CCNCC3)cccc2n1S(=O)(=O)c1cccc(Cl)c1` [Example 60], the pKi was 8.97.

As for `CC(C)c1nc2c(N3CCNCC3)cccc2n1S(=O)(=O)c1cccc2ccccc12` [Example 61, 2-(1-methylethyl)-1-(naphthalen-1-ylsulfonyl)-4-piperazin-1-yl-1H-benzimidazole], the pKi was 9.22.

Take `CC(C)c1nc2c(N3CCNCC3)cccc2n1S(=O)(=O)c1cccc2c(Cl)cccc12` [Example 62, 1-[(5-chloronaphthalen-1-yl)sulfonyl]-2-(1-methylethyl)-4-piperazin-1-yl-1H-benzimidazole]: the negative-log Ki (pKi) is 8.83.

Consider `CC(C)c1nc2c(N3CCNCC3)cccc2n1S(=O)(=O)c1ccccc1OC(F)(F)F` [Example 63, 2-(1-methylethyl)-4-piperazin-1-yl-1-{[2-(trifluoromethoxy)phenyl]sulfonyl}-1H-benzimidazole], for which the pKi was 8.94.

Consider `Cc1ccc(S(=O)(=O)n2c(C(C)C)nc3c(N4CCNCC4)cccc32)c2ccccc12` [Example 64, 2-(1-methylethyl)-1-[(4-methylnaphthalen-1-yl)sulfonyl]-4-piperazin-1-yl-1H-benzimidazole], for which the pKi was 8.80.

On to `COc1ccc(Cl)cc1S(=O)(=O)n1cnc2c(N3CCNCC3)cccc21` [Example 65, 1-[(5-chloro-2-methoxyphenyl)sulfonyl]-4-piperazin-1-yl-1H-benzimidazole], for which the pKi is 8.45.

For the compound `COc1ccc(Br)cc1S(=O)(=O)n1cnc2c(N3CCNCC3)cccc21` [Example 66, 1-[(5-bromo-2-methoxyphenyl)sulfonyl]-4-piperazin-1-yl-1H-benzimidazole], the pKi was 8.31.

Turning to `COc1ccc(OC)c(S(=O)(=O)n2cnc3c(N4CCNCC4)cccc32)c1` [Example 67, 1-[(2,5-dimethoxyphenyl)sulfonyl]-4-piperazin-1-yl-1H-benzimidazole], the pKi was 8.67.

In the case of `COc1ccc(C)cc1S(=O)(=O)n1cnc2c(N3CCNCC3)cccc21` [Example 68, 1-[(2-methoxy-5-methylphenyl)sulfonyl]-4-piperazin-1-yl-1H-benzimidazole], the pKi was 9.30.

In the case of `COc1cc(C)ccc1S(=O)(=O)n1cnc2c(N3CCNCC3)cccc21` [Example 69, 1-[(2-methoxy-4-methylphenyl)sulfonyl]-4-piperazin-1-yl-1H-benzimidazole], the pKi was 8.67.

For `Cc1cccc(Cl)c1S(=O)(=O)n1cnc2c(N3CCNCC3)cccc21` [Example 70, 1-[(2-chloro-6-methylphenyl)sulfonyl]-4-piperazin-1-yl-1H-benzimidazole], the pKi is 8.63.

On to `O=S(=O)(c1cc(C(F)(F)F)ccc1Cl)n1cnc2c(N3CCNCC3)cccc21` [Example 71, 1-{[2-chloro-5-(trifluoromethyl)phenyl]sulfonyl}-4-piperazin-1-yl-1H-benzimidazole], for which the pKi is 7.86.

In the case of `Cc1ccc(F)c(S(=O)(=O)n2cnc3c(N4CCNCC4)cccc32)c1` [Example 72, 1-[(2-fluoro-5-methylphenyl)sulfonyl]-4-piperazin-1-yl-1H-benzimidazole], the pKi was 9.60.

On to `Cc1cccc(S(=O)(=O)n2cnc3c(N4CCNCC4)cccc32)c1F` [Example 73, 1-[(2-fluoro-3-methylphenyl)sulfonyl]-4-piperazin-1-yl-1H-benzimidazole], for which the pKi was 9.69.

In the case of `COc1c(F)cccc1S(=O)(=O)n1cnc2c(N3CCNCC3)cccc21` [Example 74, 1-[(3-fluoro-2-methoxyphenyl)sulfonyl]-4-piperazin-1-yl-1H-benzimidazole], the pKi was 9.31.

Turning to `C[C@@H]1CN(c2cccc3c2ncn3S(=O)(=O)c2ccccc2Cl)CCN1` [Example 75, 1-[(2-chlorophenyl)sulfonyl]-4-[(3R)-3-methylpiperazin-1-yl]-1H-benzimidazole], the pKi was 8.92.

On to `C[C@@H]1CN(c2cccc3c2ncn3S(=O)(=O)c2cccc(Cl)c2)CCN1` [Example 76, 1-[(3-chlorophenyl)sulfonyl]-4-[(3R)-3-methylpiperazin-1-yl]-1H-benzimidazole], for which the pKi was 8.63.

With `Cc1c(Cl)cccc1S(=O)(=O)n1cnc2c(N3CCN[C@H](C)C3)cccc21` [Example 77, 1-[(3-chloro-2-methylphenyl)sulfonyl]-4-[(3R)-3-methylpiperazin-1-yl]-1H-benzimidazole], the pKi is 8.92.

For the compound `C[C@@H]1CN(c2cccc3c2ncn3S(=O)(=O)c2cccc3ccccc23)CCN1` [Example 78, 4-[(3R)-3-methylpiperazin-1-yl]-1-(naphthalen-1-ylsulfonyl)-1H-benzimidazole], the pKi is 8.89.

On to `C[C@H]1CN(c2cccc3c2ncn3S(=O)(=O)c2ccccc2Cl)CCN1` [Example 79, 1-[(2-chlorophenyl)sulfonyl]-4-[(3S)-3-methylpiperazin-1-yl]-1H-benzimidazole], for which the negative logarithm of the Ki (pKi) is 9.55.

As for `C[C@H]1CN(c2cccc3c2ncn3S(=O)(=O)c2cccc(Cl)c2)CCN1` [Example 80, 1-[(3-chlorophenyl)sulfonyl]-4-[(3S)-3-methylpiperazin-1-yl]-1H-benzimidazole], the pKi is 9.32.

`C[C@H]1CN(c2cccc3c2ncn3S(=O)(=O)c2cccc3ccccc23)CCN1` [Example 81, 4-[(3S)-3-methylpiperazin-1-yl]-1-(naphthalen-1-ylsulfonyl)-1H-benzimidazole]: the pKi was 9.45.

Regarding `Cc1c(Cl)cccc1S(=O)(=O)n1cnc2c(N3CCN[C@@H](C)C3)cccc21` [Example 82, 1-[(3-chloro-2-methylphenyl)sulfonyl]-4-[(3S)-3-methylpiperazin-1-yl]-1H-benzimidazole], the pKi was 9.68.
